Experimental data published in US20260027101A1, “BACTERIAL TOPOISOMERASE INHIBITORS” (priority 2022, published 2026).
In brackets after ≈: the same amount, converted by molar mass. Like-named read-outs stand apart in the source and are kept apart here.

Legend:
Assay type in all cases: cell-based
[1] = tested on: Staphylococcus aureus ATCC 29213; test: MIC, S. aureus ATCC 29213 (CLSI)
Method: (§1) Minimum inhibitory concentrations (MICs) were determined in triplicate according to Clinical and Laboratory Standards Institute (CLSI) guidelines using one or more strains of S. aureus or selected Gram-negative bacteria. […] Compounds were also assayed using a USA300 (Hidron, A. I., et al., Emergence of Community-Acquired Meticillin-Resistant Staphylococcus aureus Strain USA300 as a Cause of Necrotising Community-Onset Pneumonia. Lancet Infect. Dis. 2009, 9. 384-392) isolate of MRSA as well as a S. aureus strain isolated from a cystic fibrosis patient.

[2] = tested on: Staphylococcus aureus USA300 (MRSA isolate); test: MIC, S. aureus USA300 MRSA isolate (CLSI); conditions: read-out: MIC against Staphylococcus aureus USA300
Method: as §1

[3] = tested on: Staphylococcus aureus CF isolate; test: MIC, S. aureus cystic fibrosis isolate (CLSI); conditions: read-out: MIC against Staphylococcus aureus CF isolate
Method: as §1

[4] = tested on: Salmonella enterica 14028 ΔtolC (efflux-deficient strain); test: microbe, parasite or virus in culture; conditions: Salmonella enterica, read-out: MIC against Salmonella enterica 14028 ΔtolC
Method: as §1

[5] = tested on: Staphylococcus aureus D83N (29213-derived strain, GyrA substitution); test: microbe, parasite or virus in culture; conditions: read-out: MIC against Staphylococcus aureus D83N
Method: as §1

[6] = tested on: Staphylococcus aureus M121K (29213-derived strain, GyrA substitution); test: microbe, parasite or virus in culture; conditions: read-out: MIC against Staphylococcus aureus M121K
Method: as §1

[7] = tested on: Escherichia coli ATCC 25922; test: MIC, Escherichia coli ATCC 25922
Method: as §1

[8] = tested on: Acinetobacter baumanii ATCC 19606; test: MIC, Acinetobacter baumanii ATCC 19606; conditions: Acinetobacter baumannii
Method: as §1

[9] = tested on: Pseudomonas aeruginosa ATCC 27853; test: MIC, Pseudomonas aeruginosa ATCC 27853
Method: as §1

[10] = tested on: Salmonella enterica ATCC 14028; test: MIC, Salmonella enterica ATCC 14028
Method: as §1

[11] = ATCC29213, read-out: MIC against Staphylococcus aureus ATCC 29213
[12] = ATCC25922, read-out: MIC against Escherichia coli ATCC 25922
[13] = ATCC19606, read-out: MIC against Acinetobacter baumanii ATCC 19606
[14] = ATCC27853, read-out: MIC against Pseudomonas aeruginosa ATCC 27853
[15] = ATCC14028, read-out: MIC against Salmonella enterica ATCC 14028
[16] = ATCC29213, strain ATCC 29213, triplicate, CLSI, read-out: MIC against Staphylococcus aureus ATCC 29213
[17] = USA300 MRSA isolate, ciprofloxacin-resistant
[18] = ATCC25922, strain ATCC 25922, read-out: MIC against Escherichia coli ATCC 25922
[19] = ATCC19606, strain ATCC 19606, read-out: MIC against Acinetobacter baumanii ATCC 19606
[20] = ATCC27853, strain ATCC 27853, read-out: MIC against Pseudomonas aeruginosa ATCC 27853
[21] = ATCC14028, strain ATCC 14028, read-out: MIC against Salmonella enterica ATCC 14028

| Compound | MIC [1, 11] [µg/mL] | MIC [2] [µg/mL] | MIC [3] [µg/mL] | MIC [4] [µg/mL] | MIC [5] [µg/mL] | MIC [6] [µg/mL] | MIC [7, 12] [µg/mL] | MIC [8, 13] [µg/mL] | MIC [9, 14] [µg/mL] | MIC [10, 15] [µg/mL] | MIC [1, 16] [µg/mL] | MIC [2, 17] [µg/mL] | MIC ([3]; isolate from individual with cystic fibrosis) [µg/mL] | MIC [7, 18] [µg/mL] | MIC [8, 19] [µg/mL] | MIC [9, 20] [µg/mL] | MIC [10, 21] [µg/mL] |
| --- | --- | --- | --- | --- | --- | --- | --- | --- | --- | --- | --- | --- | --- | --- | --- | --- | --- |
| COc1ccc2ncc(F)c(CCN3CCC(/C=C\c4ccc5c(c4)OCCO5)CC3)c2n1 [Example 11, (Z)-8-(2-(4-(2-(2,3-dihydrobenzo[b][1,4]dioxin-6-yl)vinyl)piperidin-1-yl)ethyl)-7-fluoro-2-methoxy-1,5-naphthyridine] | 8 (≈ 17.8 µM) | 8 (≈ 17.8 µM) | 9 (≈ 20 µM) | 4 (≈ 8.9 µM) | > 16 | > 16 | > 64 | 64 (≈ 142 µM) | 64 (≈ 142 µM) | > 64 | – | – | – | – | – | – | – |
| COc1ccc2ncc(F)c(CCN3CCC(C(=O)Cc4ccc(C)cc4)CC3)c2n1 [Example 22, 1-(1-(2-(3-fluoro-6-methoxy-1,5-naphthyridin-4-yl)ethyl)piperidin-4-yl)-2-(p-tolyl)ethan-1-one] | 0.125 (≈ 0.297 µM) | 0.125 to 0.5 (≈ 0.297 to 1.19 µM) | 0.125 to 0.5 (≈ 0.297 to 1.19 µM) | 0.5 (≈ 1.19 µM) | 4 (≈ 9.49 µM) | 8 (≈ 19 µM) | 16 (≈ 38 µM) | 32 (≈ 75.9 µM) | > 64 | 64 (≈ 152 µM) | – | – | – | – | – | – | – |
| COc1ccc2ncc(F)c(CCN3CCC([C@@H]4OC(=O)O[C@H]4c4ccc(C)cc4)CC3)c2n1 [Example 31, (4S,5S)-4-(1-(2-(3-fluoro-6-methoxy-1,5-naphthyridin-4-yl)ethyl)piperidin-4-yl)-5-(p-tolyl)-1,3-dioxolan-2-one] | – | – | – | 8 (≈ 17.2 µM) | > 32 | > 32 | – | – | – | – | 2 (≈ 4.3 µM) | 2 (≈ 4.3 µM) | 4 (≈ 8.59 µM) | > 64 | 64 (≈ 137 µM) | > 64 | > 64 |
| O=c1ccc2ncc(=O)n3c2n1C[C@H]3CN1CCC(NCc2cc3c(cn2)OCCC3)CC1 [gepotidacin, reference compound] | – | – | 0.125 to 0.5 (≈ 0.279 to 1.11 µM) | 0.125 to 0.5 (≈ 0.279 to 1.11 µM) | 4 to 32 (≈ 8.92 to 71.3 µM) | 8 to 32 (≈ 17.8 to 71.3 µM) | – | – | – | – | 0.25 to 1 (≈ 0.557 to 2.23 µM) | 0.125 to 1 (≈ 0.279 to 2.23 µM) | – | 0.5 to 2 (≈ 1.11 to 4.46 µM) | 32 to 64 (≈ 71.3 to 143 µM) | 2 to 16 (≈ 4.46 to 35.7 µM) | 2 to 8 (≈ 4.46 to 17.8 µM) |
